In US20220202912A1, “Polypeptides in Preparation of Drugs for Treatment or Prevention of Rheumatoid Arthritis” (priority 2011, published 2022):
Where no end group is shown, it is not given here.

Key:
Type in all cases: in vivo, BALB/c transgenic TNF-luc mice
[1] = tested on: λ-carrageenan acute inflammation; assay: acute toe swelling in carrageenan-induced transgenic TNF-luc mice; conditions: Adalimumab 8 mg/kg, mPEG-SC20k-HM-3 20 mg/kg sc
Experimental: Before modeling, 8 animals are randomly divided into 4 groups (n=2), a normal group, a model group, a positive drug group and a test treatment group. One hour before modeling, the normal group and the model group are hypodermically injected with normal saline (0.2 mL/20 g of body weight) respectively; the positive drug group is hypodermically injected with Adalimumab (8 mg/kg of body weight), 15 d/time, once; and the test treatment group is hypodermically injected with mPEG-SC20k-HM-3 (20 mg/kg of body weight), 2 d/time, twice. The initial ankle width, foot palm width and toe thickness of the left foot are measured as initial values.
Modeling starts at hour 0, 50 μL of 1% carrageenan is hypodermically injected into the bottom of left toe of transgenic TNF-luc mice, and the ankle swelling degree, foot palm swelling degree and toe swelling degree of each group of mice are measured with a vernier caliper at […], hour 1, hour 3, hour 5, hour 7, hour 9, hour 12, hour 24, hour 48, hour 72 and hour 96 respectively. Method for calculating toe swelling degree:
Swelling degree of left ankle (cm)=swelling thickness of left ankle during measurement−thickness of left ankle during initial measurement.
Swelling degree of left foot palm (cm)=swelling thickness of left foot palm during measurement−thickness of left foot palm during initial measurement.
Swelling degree of left toe (cm)=swelling thickness of left toe during measurement−thickness of left toe during initial measurement.

[2] = tested on: AIA transgenic TNF-luc mice; assay: adjuvant-induced arthritis in transgenic TNF-luc mice (swelling, scores, weight, HE staining); set-up: right ankle swelling / left ankle swelling / left toe swelling / right toe swelling / changes of weight (added value): unit not given here; conditions: Adalimumab 8 mg/kg
Experimental: 8 animals are randomly divided into 4 groups (n=2), a normal group, a model group, a positive drug group and a test group. On day 0, the initial left and right ankle thicknesses, initial left and right foot palm thicknesses and initial left and right toe thicknesses of each group of mice are measured. On day 0, 50 μL/mouse complete Freund's adjuvant is injected into the bottom of the left toe of each group of mice, and the treatment is started after secondary inflammation appears in the right foot of each group of mice on day 17. On day 17, the normal group and the model group are hypodermically injected with 0.9% normal saline (0.2 mL/20 g of body weight), once every 2 days, 7 times in total. The positive drug Adalimumab group is hypodermically injected with Adalimumab (8 mg/kg of body weight), once every 15 days, once in total. The test group is hypodermically injected with mPEG-SC20k-HM-3 (20 mg/kg of body weight), once every 2 days, 7 times in total. The treatment lasts for 15 days. Then, medication is stopped for observation for one week, and the mice are killed one week later.
On day 0, the initial ankle widths, foot palm widths and toe thicknesses of left and right feet are measured with a vernier caliper as initial values. Every 2 days, the left and right ankle widths, foot palm widths and toe thicknesses of each group of mice are measured separately with the vernier caliper, and compared with the initial values to calculate the changes in the swelling degree.
The joints of the mouse paw are observed with naked eyes, and the joints are scored every 2 days from day 17. Scoring is performed in terms of level 0 to level 4, 5 levels in total.
After the secondary inflammation appears, systemic scoring is performed every 2 days.
(§1) Changes of expression of TNF-α and IL-6 are analyzed by HE staining and immunohistochemistry in the ankle joint, spleen and thymus of the mice. Observation and photographing are performed under the FOVs of ×200 and ×400 times respectively, 5 FOVs are taken randomly for each picture, and data statistics is performed.

IL-6 = assay: immunohistochemistry of IL-6 in spleen and thymus, AIA transgenic TNF-luc mice; conditions: Adalimumab 8 mg/kg, mPEG-SC20k-HM-3 20 mg/kg
Experimental: as §1

[3] = 0 d, before treatment (starts day 17), mPEG-SC20k-HM-3 20 mg/kg groups
[4] = 1 d, before treatment (starts day 17), mPEG-SC20k-HM-3 20 mg/kg groups
[5] = 3 d, before treatment (starts day 17), mPEG-SC20k-HM-3 20 mg/kg groups
[6] = 6 d, before treatment (starts day 17), mPEG-SC20k-HM-3 20 mg/kg groups
[7] = 9 d, before treatment (starts day 17), mPEG-SC20k-HM-3 20 mg/kg groups
[8] = 12 d, before treatment (starts day 17), mPEG-SC20k-HM-3 20 mg/kg groups
[9] = 16 d, before treatment (starts day 17), mPEG-SC20k-HM-3 20 mg/kg groups
[10] = 17 d (treatment starts), mPEG-SC20k-HM-3 20 mg/kg sc
[11] = 19 d, mPEG-SC20k-HM-3 20 mg/kg sc
[12] = 22 d, mPEG-SC20k-HM-3 20 mg/kg sc
[13] = 25 d, mPEG-SC20k-HM-3 20 mg/kg sc
[14] = 28 d, mPEG-SC20k-HM-3 20 mg/kg sc
[15] = 31 d, mPEG-SC20k-HM-3 20 mg/kg sc

## mPEG-SC20k-Ile-Val-Arg-Arg-Ala-Asp-Arg-Ala-Ala-Val-Pro-Gly-Gly-Gly-Gly-Arg-Gly-Asp ({mPEG‑SC 20k}-IVRRADRAAVPGGGGRGD) [polypeptide III, No. 3]
[1]; 1 h
  left ankle swelling: 0.060 ± 0.045 cm
  left foot (palm) swelling: 0.101 ± 0.027 cm
  left toe swelling: 0.132 ± 0.054 cm
[1]; 3 h
  left ankle swelling: 0.079 ± 0.052 cm
  left foot (palm) swelling: 0.092±0.054 cm
  left toe swelling: 0.114 ± 0.025 cm
[1]; 5 h
  left ankle swelling: 0.117 ± 0.033 cm
  left foot (palm) swelling: 0.125 ± 0.035 cm
  left toe swelling: 0.146 ± 0.003 cm
[1]; 7 h
  left ankle swelling: 0.074 ± 0.014 cm
  left foot (palm) swelling: 0.116 ± 0.034 cm
  left toe swelling: 0.174 ± 0.065 cm
[1]; 9 h
  left ankle swelling: 0.061 ± 0.013 cm
  left foot (palm) swelling: 0.086 ± 0.008 cm
  left toe swelling: 0.124 ± 0.014 cm
[1]; 12 h
  left ankle swelling: 0.055 ± 0.018 cm
  left foot (palm) swelling: 0.091 ± 0.004 cm
  left toe swelling: 0.113 ± 0.027 cm
[1]; 24 h
  left ankle swelling: 0.066 ± 0.003 cm
  left foot (palm) swelling: 0.107 ± 0.010 cm
  left toe swelling: 0.136 ± 0.011 cm
[1]; 48 h
  left ankle swelling: 0.051±0.044 cm
  left foot (palm) swelling: 0.105 ± 0.010 cm
  left toe swelling: 0.126 ± 0.031 cm
[1]; 72 h
  left ankle swelling: 0.032±0.074 cm
  left foot (palm) swelling: 0.101 ± 0.016 cm
  left toe swelling: 0.094±0.034 cm
[1]; 96 h
  left ankle swelling: 0.032±0.042 cm
  left foot (palm) swelling: 0.076±0.006 cm
  left toe swelling: 0.084±0.040 cm
[2]; [3]
  changes of weight (added value): 0.00 ± 0.00
  left ankle swelling: 0.000 ± 0.000
  left foot (palm) swelling: 0.000 ± 0.000
  left toe swelling: 0.000 ± 0.000
[2]; [4]
  left ankle swelling: 0.188 ± 0.018
  left foot (palm) swelling: 0.163 ± 0.052
  left toe swelling: 0.255 ± 0.027
[2]; [5]
  changes of weight (added value): 0.27 ± 0.06
  left ankle swelling: 0.204 ± 0.074
  left foot (palm) swelling: 0.174 ± 0.088
  left toe swelling: 0.225 ± 0.106
[2]; [6]
  changes of weight (added value): 0.28 ± 0.25
  left ankle swelling: 0.265 ± 0.031
  left foot (palm) swelling: 0.207 ± 0.055
  left toe swelling: 0.261 ± 0.126
[2]; [7]
  changes of weight (added value): 0.40 ± 0.39
  left ankle swelling: 0.251 ± 0.029
  left foot (palm) swelling: 0.224 ± 0.062
  left toe swelling: 0.260 ± 0.156
[2]; [8]
  changes of weight (added value): 0.42 ± 0.66
  left ankle swelling: 0.265 ± 0.028
  left foot (palm) swelling: 0.228 ± 0.054
  left toe swelling: 0.303 ± 0.103
[2]; 15 d, before treatment (starts day 17), mPEG-SC20k-HM-3 20 mg/kg groups
  changes of weight (added value): 0.67 ± 1.06
[2]; [9]
  left ankle swelling: 0.274 ± 0.020
  left foot (palm) swelling: 0.221 ± 0.041
  left toe swelling: 0.294 ± 0.092
  right ankle swelling: 0.024 ± 0.011
  right foot palm swelling: 0.007 ± 0.007
  right toe swelling: 0.015 ± 0.021
[2]; [10]
  joint index score: 7.50 ± 0.70
  whole body (systemic) score: 5.50 ± 0.70
[2]; [11]
  changes of weight (added value): 0.97 ± 1.09
  left ankle swelling: 0.297 ± 0.005
  right ankle swelling: 0.019 ± 0.009
  right foot palm swelling: 0.010 ± 0.011
[2]; [12]
  changes of weight (added value): 0.82 ± 0.57
  left ankle swelling: 0.252 ± 0.006
  right foot palm swelling: 0.003 ± 0.016
[2]; [13]
  changes of weight (added value): 0.61 ± 0.72
  left ankle swelling: 0.219 ± 0.013
  left toe swelling: 0.292 ± 0.107
  right toe swelling: 0.015 ± 0.027
[2]; [14]
  changes of weight (added value): 1.13 ± 0.18
  right ankle swelling: 0.021±0.013
[2]; [15]
  changes of weight (added value): 1.15 ± 0.40
  left toe swelling: 0.270 ± 0.127
[2]; mPEG-SC20k-HM-3 20 mg/kg
  HE staining of ankle joints: pathological symptoms vs model group: relieved to some extent
IL-6
  immunohistochemical score of IL-6 in spleen: 0.006±0.002
  immunohistochemical score of IL-6 in thymus: 0.068±0.033
